Values of other authors in US20210324031A1, “COMPOUNDS, COMPOSITIONS, METHODS, AND USES FOR TREATING LEPTIN RESISTANCE, OBESITY, DIABETES MELLITUS AND METABOLIC SYNDROME” (priority 2019, published 2021).
Where a SMILES comes first, the peptide text is derived from it. [ ]: non-standard residue; d: D form. The star is where a group is joined. Dolaproine = CO[C@@H]([C@@H]1CCCN1)[C@@H](C)C(=O)O; Dil = CC[C@H](C)[C@H](NC)[C@@H](CC(=O)O)OC; X1 = C[C@@H](N*)[C@@H](O)c1ccccc1; NMeV = CN[C@H](C(=O)O)C(C)C

Legend:
[1] = Human cancer clinical trials
[2] = system: CD30+ ALCL type tumor Karpas 299

With NS(=O)(=O)OC[C@H]1C[C@H](n2ccc3c(N[C@@H]4CCc5ccccc54)ncnc32)C[C@H]1O (stereo in doubt) [MLN4924, ((1R,2R,4S)-4-(4-(((R)-2,3-dihydro-1H-inden-1-yl)amino)-7H-pyrrolo[2,3-d]pyrimidin-7-yl)-2-hydroxycyclopentyl)methyl sulfamate] as the compound, how does the “toxicity in clinical trials” value [1] read?
Its value is “toxic”.

For CC[C@H](C)[C@@H]([C@@H](CC(=O)N1CCC[C@H]1[C@H](OC)[C@@H](C)C(=O)N[C@H](C)[C@@H](O)c1ccccc1)OC)N(C)C(=O)[C@@H](NC(=O)[C@@H](NC)C(C)C)C(C)C [MMAE, monomethyl auristatin E] (H-[NMeV]V[Dil][Dolaproine]-X1), which “control of tumor growth” value ([2]; ADC format, conjugated to an anti-CD30 antibody, drug to antibody ratio 2:1, MMAE dose 10 times lower than the free drug) is on record?
The value was “completely control tumor growth”.

And the “halt of tumor growth” value ([2]; free drug at maximal tolerated dose 0.3 mg/kg, compared with saline)?
The value was “only slightly better than saline”.

What about the maximal tolerated dose ([2]; free drug, mice with human xenografted tumors) of the same compound?
Its maximal tolerated dose is 0.3 mg/kg.
